Experiments:
PIM-2 [1] = molecular target: T1, PIM-2 (Homo sapiens, UniProt Q9P1W9); experiment: PIM-2 assay, IC50 determination (luciferase-luciferin ATP depletion, 10-point dose response); format: biochemical; settings: for IC50: 10 nM PIM-2, 1 μM ATP, 50 μM peptide substrate, 15 minutes at room temperature
Procedure: The screen utilizes the Zymark Allegro UHTS system to dispense reagents, buffers and test compounds. To Greiner 384-well, white Lumitrac-200 plates, 20 μL/well of 20 nM PIM-2 (10 nM final assay concentration) in assay buffer (25 mM HEPES, pH 7.5, 10 mM MgCl2, 50 mM KCl, 0.2% CHAPS, 100 μM Na3VO4, 0.2% BSA and 200 μM TCEP) is delivered, followed by 10 μL/well of test compounds (3 μg/mL final assay concentration in 1% DMSO) that were previously dissolved in DMSO and diluted in assay buffer. A 10 μL volume of a solution containing 4 μM ATP (1 μM final assay concentration) and 20 μM peptide substrate (Biotin-[sequence], 5 μM final assay concentration) diluted in assay buffer is added to each well and the contents of the wells are mixed. […] Positive control wells receive 10 μL/well of assay buffer in lieu of compound. The kinase reaction mixture is incubated for 60 minutes at room temperature. A 40 μL/well of ATP detection reagent is then added to the reaction mixture. The assay plates are read on an Analyst (Molecular Devices) in luminescence mode following additional 15 minutes of incubation at room temperature. Luminescence signals are converted to percent of control (POC) values using the formula: POC=(BCTRL−Signal)÷(BCTRL−PCTRL), where Signal is the test well signal, BCTRL is the average of background control well signals on the plate and PCTRL is the average of positive control well signals on the plate.
The IC50 of the compounds is determined with a modification of the above method. The assay is performed in 96-well Lumitrac-200, white, plates. Test compounds dissolved in DMSO (5 mg/mL) are serially diluted 1 to 3 in DMSO for 10-point dose response. The DMSO dilutions are further diluted in the assay buffer and 15 μL of this dilution is added to the assay plate, for a final starting assay concentration of 5 μg/mL in 1% DMSO. A 15 μL volume of 40 nM PIM-2 followed by 30 μL of a solution containing 2 μM ATP and 100 μM peptide substrate, all diluted in assay buffer, is added to each well for a final assay concentration of 10 nM PIM-2, 1 μM ATP, and 50 μM peptide substrate. The kinase reaction mixture is incubated for 15 minutes at room temperature. A 60 μL/well of ATP detection reagent is then added to the reaction mixture. The assay plates are read on an Analyst (Molecular Devices) in luminescence mode following additional 15 minutes of incubation at room temperature. IC50 is determined by fitting the POC of the dose response data to a 4-parameter logistic equation.

PIM-2 [2] = molecular target: T1, PIM-2; experiment: PIM-2 assay, single-concentration screen (luciferase-luciferin ATP depletion); format: biochemical; settings: percent of control at 3 μg/mL final assay concentration, 1 μM ATP, 5 μM peptide substrate, 60 minutes
Procedure: The activity of PIM-2 is measured using luciferase-luciferin based ATP detection reagent to quantify ATP depletion resulting from kinase-catalyzed phosphoryl transfer to a peptide substrate. The screen utilizes the Zymark Allegro UHTS system to dispense reagents, buffers and test compounds. To Greiner 384-well, white Lumitrac-200 plates, 20 μL/well of 20 nM PIM-2 (10 nM final assay concentration) in assay buffer (25 mM HEPES, pH 7.5, 10 mM MgCl2, 50 mM KCl, 0.2% CHAPS, 100 μM Na3VO4, 0.2% BSA and 200 μM TCEP) is delivered, followed by 10 μL/well of test compounds (3 μg/mL final assay concentration in 1% DMSO) that were previously dissolved in DMSO and diluted in assay buffer. A 10 μL volume of a solution containing 4 μM ATP (1 μM final assay concentration) and 20 μM peptide substrate (Biotin-[…], 5 μM final assay concentration) diluted in assay buffer is added to each well and the contents of the wells are mixed. […] The assay plates are read on an Analyst (Molecular Devices) in luminescence mode following additional 15 minutes of incubation at room temperature. Luminescence signals are converted to percent of control (POC) values using the formula: POC=(BCTRL−Signal)÷(BCTRL−PCTRL), where Signal is the test well signal, BCTRL is the average of background control well signals on the plate and PCTRL is the average of positive control well signals on the plate.

T1 sequence (Q9P1W9 whole entry): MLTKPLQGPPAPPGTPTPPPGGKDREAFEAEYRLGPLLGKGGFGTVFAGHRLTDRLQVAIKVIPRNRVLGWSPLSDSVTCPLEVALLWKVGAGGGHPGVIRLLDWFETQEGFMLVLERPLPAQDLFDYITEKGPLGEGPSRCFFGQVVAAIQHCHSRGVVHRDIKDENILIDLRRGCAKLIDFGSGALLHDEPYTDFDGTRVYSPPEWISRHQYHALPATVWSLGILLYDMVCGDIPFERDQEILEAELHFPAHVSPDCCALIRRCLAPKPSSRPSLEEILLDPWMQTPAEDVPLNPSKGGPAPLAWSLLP

CC(=O)NCCNc1cncc(-c2cccc(/C=C/C(=O)O)c2)n1 [compound 21, (E)-3-{3-[6-(2-Acetylamino-ethylamino)-pyrazin-2-yl]-phenyl}-acrylic acid]
IC50 (PIM-2 [1]): 1020 nM

NCC1CCN(c2cncc(-c3cccc(/C=C/C(=O)O)c3)n2)CC1 [compound 22, (E)-3-{3-[6-(4-Aminomethyl-piperidin-1-yl)-pyrazin-2-yl]-phenyl}-acrylic acid]
IC50 (PIM-2 [1]): 21 nM

CN(C)C1CCN(c2cncc(-c3cccc(/C=C/C(=O)O)c3)n2)CC1 [compound 24, (E)-3-{3-[6-(4-Dimethylamino-piperidin-1-yl)-pyrazin-2-yl]-phenyl}-acrylic acid]
IC50 (PIM-2 [1]): 72 nM

NC1CCN(c2cncc(-c3cccc(/C=C/C(=O)O)c3)n2)CC1 [compound 25, (E)-3-{3-[6-(4-Amino-piperidin-1-yl)-pyrazin-2-yl]-phenyl}-acrylic acid]
IC50 (PIM-2 [1]): 115 nM

CN1CCN(c2cncc(-c3cccc(/C=C/C(=O)O)c3)n2)CC1 [compound 26, (E)-3-[3-(4-Methyl-3,4,5,6-tetrahydro-2H-[1,2′]bipyrazinyl-6′-yl)-phenyl]-acrylic acid]
IC50 (PIM-2 [1]): 150 nM

O=C(O)/C=C/c1cccc(-c2cncc(N3CCCNCC3)n2)c1 [compound 27, (E)-3-[3-(6-[1,4]Diazepan-1-yl-pyrazin-2-yl)-phenyl]-acrylic acid]
IC50 (PIM-2 [1]): 185 nM

O=C(O)/C=C/c1cccc(-c2cncc(N3CCNCC3)n2)c1 [compound 28, (E)-3-[3-(3,4,5,6-Tetrahydro-2H-[1,2′]bipyrazinyl-6′-yl)-phenyl]-acrylic acid]
IC50 (PIM-2 [1]): 200 nM

O=C(O)/C=C/c1cccc(-c2cncc(N3CCCN(Cc4ccccc4)CC3)n2)c1 [compound 29, (E)-3-{3-[6-(4-Benzyl-[1,4]diazepan-1-yl)-pyrazin-2-yl]-phenyl}-acrylic acid]
IC50 (PIM-2 [1]): 230 nM

CN(C)C1CCN(c2cncc(-c3cccc(/C=C/C(=O)O)c3)n2)C1 (stereo not drawn) [compound 30, (E)-3-{3-[6-(3-Dimethylamino-pyrrolidin-1-yl)-pyrazin-2-yl]-phenyl}-acrylic acid]
IC50 (PIM-2 [1]): 270 nM

CC(=O)N1CCCN(c2cncc(-c3cccc(/C=C/C(=O)O)c3)n2)CC1 [compound 31, (E)-3-{3-[6-(4-Acetyl-[1,4]diazepan-1-yl)-pyrazin-2-yl]-phenyl}-acrylic acid]
IC50 (PIM-2 [1]): 880 nM

O=C(O)/C=C/c1cccc(-c2cncc(N3CCC(O)CC3)n2)c1 [compound 32, (E)-3-{3-[6-(4-Hydroxy-piperidin-1-yl)-pyrazin-2-yl]-phenyl}-acrylic acid]
IC50 (PIM-2 [1]): 1050 nM

O=C(O)/C=C/c1cccc(-c2cncc(N3CCC(CO)CC3)n2)c1 [compound 33, (E)-3-{3-[6-(4-Hydroxymethyl-piperidin-1-yl)-pyrazin-2-yl]-phenyl}-acrylic acid]
IC50 (PIM-2 [1]): 2100 nM

O=C(O)/C=C/c1cccc(-c2cncc(N3CCOCC3)n2)c1 [compound 34, (E)-3-[3-(6-Morpholin-4-yl-pyrazin-2-yl)-phenyl]-acrylic acid]
IC50 (PIM-2 [1]): 1700 nM

O=C(O)/C=C/c1cccc(-c2cncc(N3CCCCCC3)n2)c1 [compound 35, (E)-3-[3-(6-Azepan-1-yl-pyrazin-2-yl)-phenyl]-acrylic acid]
IC50 (PIM-2 [1]): 3300 nM

CN1CCCN(c2cccc(-c3cccc(/C=C/C(=O)O)c3)n2)CC1 [compound 36, (E)-3-{3-[6-(4-Methyl-[1,4]diazepan-1-yl)-pyridin-2-yl]-phenyl}-acrylic acid]
IC50 (PIM-2 [1]): 46 nM

CN1CCCN(c2cncc(-c3cncc(/C=C/C(=O)O)c3)n2)CC1 [compound 37, (E)-3-{5-[6-(4-Methyl-[1,4]diazepan-1-yl)-pyrazin-2-yl]-pyridin-3-yl}-acrylic acid]
IC50 (PIM-2 [1]): 385 nM

CN1CCCN(c2cncc(-c3cccc(CCC(=O)O)c3)n2)CC1 [compound 38, 3-[3-[6-(4-Methyl-[1,4]diazepan-1-yl)-pyrazin-2-yl]-phenyl]-propionic acid]
IC50 (PIM-2 [1]): 1400 nM

COC(=O)/C=C/c1cccc(-c2cncc(N3CCCN(C)CC3)n2)c1 [compound 39, (E)-3-{3-[6-(4-Methyl-[1,4]diazepan-1-yl)-pyrazin-2-yl]-phenyl}-acrylic acid methyl ester]
IC50 (PIM-2 [1]): 1400 nM

CN1CCCN(c2cncc(-c3cccc(/C=C/C(N)=O)c3)n2)CC1 [compound 40, (E)-3-{3-[6-(4-Methyl-[1,4]diazepan-1-yl)-pyrazin-2-yl]-phenyl}-acrylamide]
IC50 (PIM-2 [1]): 1200 nM

CN1CCCN(c2cncc(-c3cccc(/C=C/CO)c3)n2)CC1 [compound 41, (E)-3-{3-[6-(4-Methyl-[1,4]diazepan-1-yl)-pyrazin-2-yl]-phenyl}-prop-2-en-1-ol]
POC @ 5 μg/mL (PIM-2 [1]; percent of control at 5 μg/mL (final starting assay concentration of dose response)): 69POC @ 5 μg/mL

CN1CCCN(c2cncc(-c3cccc(/C=C/C#N)c3)n2)CC1 [compound 42, (E)-3-{3-[6-(4-Methyl-[1,4]diazepan-1-yl)-pyrazin-2-yl]-phenyl}-acrylonitrile]
IC50 (PIM-2 [1]): 13000 nM

CN1CCCN(c2cncc(-c3cccc(/C=C/c4nnn[nH]4)c3)n2)CC1 [compound 43, 1-Methyl-4-(6-{3-[(E)-2-(1H-tetrazol-5-yl)-vinyl]-phenyl}-pyrazin-2-yl)-[1,4]diazepane]
IC50 (PIM-2 [1]): 89 nM

CN1CCCN(c2cncc(-c3cccc(/C=C/C(=O)NS(C)(=O)=O)c3)n2)CC1 [compound 44, N-((E)-3-{3-[6-(4-Methyl-perhydro-1,4-diazepin-1-yl)-pyrazin-2-yl]-phenyl}-acryloyl)-methanesulfonamide]
IC50 (PIM-2 [1]): 2400 nM

CN1CCCN(c2cncc(-c3cccc(/C=C/C(=O)NCCO)c3)n2)CC1 [compound 45, (E)-N-(2-Hydroxy-ethyl)-3-{3-[6-(4-methyl-perhydro-1,4-diazepin-1-yl)-pyrazin-2-yl]-phenyl}-acrylamide]
POC @ 3 μg/mL (PIM-2 [2]): 63 POC @ 3 μg/mL

From patent US8318723B2, “Pyrazine compounds, their use and methods of preparation” (Boehringer Ingelheim International GmbH, priority 2006, dated 2012)
